{"source": "patent US12351574B2", "about": "“Selective ligands for modulation of GIRK channels” (Northeastern University, priority 2018, dated 2025)", "target": "T1, GIRK1/2 (UniProt P48542+P48549)", "T1 sequence (P48549 1-501)": "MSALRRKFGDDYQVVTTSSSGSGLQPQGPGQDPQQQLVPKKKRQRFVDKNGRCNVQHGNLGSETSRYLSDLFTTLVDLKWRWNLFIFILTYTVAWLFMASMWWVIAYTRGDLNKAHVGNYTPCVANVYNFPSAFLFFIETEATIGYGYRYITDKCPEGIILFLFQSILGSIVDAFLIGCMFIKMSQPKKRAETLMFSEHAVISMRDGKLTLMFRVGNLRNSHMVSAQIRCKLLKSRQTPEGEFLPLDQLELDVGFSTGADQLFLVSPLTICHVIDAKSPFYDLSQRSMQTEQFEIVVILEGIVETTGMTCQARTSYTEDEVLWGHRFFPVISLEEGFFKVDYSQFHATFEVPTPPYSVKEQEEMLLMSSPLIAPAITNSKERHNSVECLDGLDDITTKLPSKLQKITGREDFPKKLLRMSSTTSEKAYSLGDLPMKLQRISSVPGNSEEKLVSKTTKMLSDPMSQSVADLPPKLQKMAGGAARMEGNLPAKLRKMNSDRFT", "T1 sequence (P48542 1-425)": "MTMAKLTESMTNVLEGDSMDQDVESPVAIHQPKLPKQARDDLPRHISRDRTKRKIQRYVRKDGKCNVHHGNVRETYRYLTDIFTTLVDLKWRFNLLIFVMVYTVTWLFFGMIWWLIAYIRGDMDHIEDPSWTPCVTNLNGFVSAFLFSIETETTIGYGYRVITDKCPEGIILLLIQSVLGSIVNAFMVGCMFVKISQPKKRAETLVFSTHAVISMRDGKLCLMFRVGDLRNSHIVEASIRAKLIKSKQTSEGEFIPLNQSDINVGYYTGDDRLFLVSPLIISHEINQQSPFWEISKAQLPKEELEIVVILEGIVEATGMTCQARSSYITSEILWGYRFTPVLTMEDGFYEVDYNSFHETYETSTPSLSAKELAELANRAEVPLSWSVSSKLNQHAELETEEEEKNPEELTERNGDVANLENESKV", "assay": "concentration-response, whole-cell patch clamp in HEK-293 cells expressing GIRK1/2", "format": "cell-based, human GIRK1, mouse GIRK2", "parameters": "expressed in transfected cells", "details": "FIGS. 5A-5C", "procedure": "Culture of HEK293 cells: HEK293-T cells were obtained from ATCC and maintained in DMEM medium supplemented with 10% FBS and 1% penicillin and streptomycin (Hyclone). For patch-clamp studies, cells were seeded on glass coverslips and transfected 24-hours later using a polyethylenimine solution (1 mg/ml) at a ratio of 8 μl per μg of DNA. To study GIRK-currents, cells were transfected with 0.75 μg each of plasmids encoding GIRK1, GIRK2 or GIRK4 as indicated. In the optogenetic experiments, cells were co-transfected with plasmids encoding 5-ptaseOCRL and CIBN-CAAX, as previously described. 5-ptaseOCRL and CIBN-CAAX were a kind gift from the DeCamilli lab, Yale CT. All experiments were performed at room temperature 24-36 hours post transfection.\nPatch-clamp recording: Whole-cell currents were recorded with an Axopatch 200B amplifier (Molecular Devices) controlled via a USB-interface (National Instruments) using WinWCP software (University of Strathclyde). […] The barium-sensitive component of the current, observed when cells were perfused with the high-K^+ buffer, was analyzed and was determined by perfusing 5 mM BaCl2 in the high-K^+ buffer at the end of each experiment. […]\nPatch-clamp recording: Whole-cell currents were recorded with an Axopatch 200B amplifier (Molecular Devices) controlled via a USB-interface (National Instruments) using WinWCP software (University of Strathclyde). […]"}
{"smiles": "Cc1cc(NC(=O)Nc2ccc(Br)s2)n(-c2ccccc2)n1", "note": "[GAT1508, 1-(5-bromothiophen-2-yl)-3-(3-methyl-1-phenyl-1H-pyrazol-5-yl)urea]", "values": [{"measurement": "potency and efficacy compared to ML297 or GAT1521 (in words)", "value": "highest potency and efficacy"}]}
